{"source": "patent US9200017B2", "about": "“Multimodal imaging of fibrin” (The General Hospital Corporation, priority 2009, dated 2015)", "target": "T1, Thrombus (Rattus norvegicus, UniProt P02680+P06399+P14480)", "T1 construct": "thrombin cleaves fibrinopeptides on fibrinogen resulting in an end-to-end polymerization to give the polymer fibrin; A day old autologous blood clot was injected into the right internal carotid artery; from tissue; host or cells: autologous blood clot in the right internal carotid artery of Wistar rats", "T1 sequence (P06399 37-550 isoform P06399-2 limits assumed)": "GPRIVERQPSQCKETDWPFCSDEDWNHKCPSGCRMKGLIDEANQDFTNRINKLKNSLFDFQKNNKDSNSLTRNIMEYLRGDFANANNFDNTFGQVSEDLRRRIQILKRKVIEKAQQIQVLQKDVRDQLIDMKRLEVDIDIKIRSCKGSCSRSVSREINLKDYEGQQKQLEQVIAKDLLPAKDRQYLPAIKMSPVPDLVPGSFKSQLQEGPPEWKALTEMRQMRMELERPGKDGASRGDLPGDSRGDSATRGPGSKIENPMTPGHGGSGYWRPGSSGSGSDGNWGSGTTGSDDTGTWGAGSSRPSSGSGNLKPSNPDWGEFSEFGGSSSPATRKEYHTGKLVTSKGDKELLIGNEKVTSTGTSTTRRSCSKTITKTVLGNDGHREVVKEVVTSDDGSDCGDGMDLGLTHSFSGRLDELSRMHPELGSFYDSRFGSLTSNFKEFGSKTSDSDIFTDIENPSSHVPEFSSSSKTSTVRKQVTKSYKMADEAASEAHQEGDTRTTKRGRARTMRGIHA", "T1 sequence (P14480 33-479 limits assumed)": "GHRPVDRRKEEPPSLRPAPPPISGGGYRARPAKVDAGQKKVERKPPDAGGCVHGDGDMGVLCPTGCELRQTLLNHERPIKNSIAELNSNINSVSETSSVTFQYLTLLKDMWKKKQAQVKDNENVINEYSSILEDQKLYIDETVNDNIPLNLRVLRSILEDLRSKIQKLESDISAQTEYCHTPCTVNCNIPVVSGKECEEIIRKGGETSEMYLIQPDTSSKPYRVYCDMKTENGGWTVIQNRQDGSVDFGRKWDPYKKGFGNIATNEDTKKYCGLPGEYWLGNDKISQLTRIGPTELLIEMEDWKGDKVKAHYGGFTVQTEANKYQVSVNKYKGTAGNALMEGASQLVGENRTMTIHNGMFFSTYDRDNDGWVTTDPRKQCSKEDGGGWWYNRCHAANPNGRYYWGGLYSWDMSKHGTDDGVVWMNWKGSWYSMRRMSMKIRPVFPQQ", "T1 sequence (P02680 26-437 isoform P02680-2 limits assumed)": "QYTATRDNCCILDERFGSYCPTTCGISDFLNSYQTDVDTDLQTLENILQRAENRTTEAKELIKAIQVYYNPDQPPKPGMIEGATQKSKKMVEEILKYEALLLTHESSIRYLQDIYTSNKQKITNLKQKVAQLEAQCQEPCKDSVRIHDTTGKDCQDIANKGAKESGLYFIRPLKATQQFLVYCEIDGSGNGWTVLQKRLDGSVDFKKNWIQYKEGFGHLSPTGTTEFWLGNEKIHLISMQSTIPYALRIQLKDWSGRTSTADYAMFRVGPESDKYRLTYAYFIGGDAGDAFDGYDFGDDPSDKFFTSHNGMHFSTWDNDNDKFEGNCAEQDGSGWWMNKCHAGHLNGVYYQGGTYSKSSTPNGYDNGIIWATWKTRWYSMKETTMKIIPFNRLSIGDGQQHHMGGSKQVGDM", "test": "MR-PET imaging of occlusive thrombus in right internal carotid artery of rats", "assay_type": "in vivo", "settings": "for PET time-activity curve in thrombus: over 90 min, contralateral vessel signal decays with time; for Thrombus visibility on black-blood T1-weighted MR post injection: six animals imaged", "method": "All animal studies were approved by the Subcommittee on Research Animal Care at Massachusetts General Hospital. The occlusive thrombus model was described previously (Zhang R L, Chopp M, Zhang Z G, Jiang Q, and Ewing J R., Brain Res. 1997 766(1-2):83-92). Briefly, male Wistar rats (350-400 g, n=8; Charles River Laboratories, Wilmington, Mass.) were anaesthetized with isoflurane (1-2% in 70% N2O and 30% O2) and body temperature was kept at 37.5° C. A day old autologous blood clot was injected into the right internal carotid artery (ICA) at the level of the middle cerebral artery (MCA). The femoral vein was cannulated for intravenous delivery of the contrast agent. Simultaneous PET and MR were acquired on a clinical 3T MRI-BrainPET scanner using a home-built receive surface coil and a CP transmit coil. After baseline MR scans were acquired, the dual MR-PET probe was injected at a dose of 11.5 μmol/kg (46 μmol Gd/kg, total activity=19.6±5.9 MBq). The animals were sacrificed 2 h post-injection. In total, six animals underwent imaging while in two additional animals only biodistribution data was collected.\nThe list-mode emission data from PET were rebinned in the sinogram space for fast reconstruction. The uncorrected PET volume was first reconstructed and binary segmented based on an empirically determined threshold in soft tissue and air. A uniform linear attenuation coefficient (0.096 cm^−1, corresponding to water at 511 keV) was assigned to all soft tissue voxels and the resulting attenuation map (combined with the coil attenuation map) was forward projected to derive the attenuation correction factors in sinogram space. A model-based approach was used to derive the scatter sinogram. The normalization was calculated from a 64 hr scan of a plane-source rotated in the FOV. The images were reconstructed with the ordinary Poisson ordered subsets expectation maximization (OP-OSEM) algorithm using 16 subsets and 6 iterations. The reconstructed volume consists of 153 slices with 256×256 pixels (1.25×1.25×1.25 mm^3). The spatial resolution at the center of the field of view is approximately 2.5 mm.\nThe emission data were recorded in list-mode format for approximately 90 min (9×10 min frames) after MR-PET probe administration. The data acquired in each individual frame were processed and images were reconstructed after acquisition for immediate analysis. Images were also reconstructed from the data acquired 30-90 minutes post injection. Additionally, thirty 3-minute frames were generated and the tracer uptake in structures of interest as a function of time was analyzed.\nThe MR imaging sequence included MP-RAGE and 3D T1-weighted gradient echo scans with and without inflow saturation. The latter were used for time of flight (TOF) angiography. The field of view scanned for the 3D sequences was 85×85 mm^2, with repetition time (TR), echo time (TE), and flip angle of 32 ms, 5.78 ms and 18°, respectively. […] For the MP-RAGE, the parameters used were inversion time TI=900 ms, TR/TE=2300/4.4, NEX=1, FOV=49×49 mm^2, matrix=192×192, slice thickness=0.26 mm for resolution=0.26 mm^3.\nMR images were analyzed using OsiriX (www.osirix-viewer.com) by drawing regions of interest (ROI) in the thrombus, contralateral artery and adjacent tissue and quantifying signal intensity (SI). Noise was quantified as the standard deviation (SD) of the signal measured in the air outside the animal. Contrast to noise ratios (CNR) were calculated for the difference between tissue A and tissue B using the following equation (1). CNR(tissue A/tissue B)=[SI(tissue A)−SI(tissue B)]/SD(air) (1)\nSignal intensity ratios (SIR) between the thrombus (ipsilateral) and contralateral vessel were calculated using equation (2) for images pre- and 10 min post-probe administration. SIR=[SI(ipsilateral)/SI(contralateral)]post/[SI(ipsilateral)/SI(contralateral)]pre (2) […]"}
{"substance": "Gd3-EP-2104R-Cu [Compound 21]", "values": [{"measurement": "CNRthrombus:brain post probe", "setting": "black-blood MR, 11.5 μmol/kg i.v., pre-injection −2.0±2.2, p<0.005", "result": "13.0±2.0"}, {"measurement": "PET SIRipsi:contra", "setting": "hyperintense lesion vs identical contralateral volume of interest, p<0.01", "result": "1.85±0.48"}, {"measurement": "PET time-activity curve in thrombus", "result": "rapid and static uptake in the thrombus"}, {"measurement": "PET time-activity curve in thrombus", "setting": "listed as Gd3-EP-2104R-^64Cu", "result": "activity remains approximately constant over 90 min"}, {"measurement": "Thrombus visibility on black-blood T1-weighted MR post injection", "result": "now bright indicating the presence of thrombus"}, {"measurement": "Thrombus visibility on black-blood T1-weighted MR post injection", "setting": "listed as Gd3-EP-2104R-^64Cu", "result": "clearly visible"}, {"measurement": "MR SIRpost/SIRpre", "setting": "thrombus vs contralateral vessel, pre and 10 min post probe, p<0.01", "result": "1.71±0.35"}]}
